Test results reported in article PMC3097197 (PLoS ONE, 2011).
Entries after “also recorded” stand apart in the source; their conditions may differ.

Assays:
[1] = tested on: YopE secretion by attenuated Y. pestis; test: microbe, parasite or virus in culture; format: cell-based, Yersinia pestis KIM19; conditions: for inhibition at 100 µM / inhibition at 10 µM: Yersinia pestis, 1 h; for inhibition at 100 µM: read-out: Inhibition of YopE secretion at 100 µM; for inhibition at 10 µM: read-out: Inhibition of YopE secretion at 10 µM
[2] = tested on: HeLa cells incubated with attenuated Y. pestis KIM19 strain
[3] = in vitro; conditions: human, hela cells
[4] = tested on: Attenuated Y. pestis KIM19 strain; format: cell-based, Yersinia pestis
[5] = tested on: HeLa cells incubated with attenuated Y. pestis KIM19 strain; test: cells; conditions: Homo sapiens, 3 h; for inhibition at 10 µM: read-out: Inhibition of HeLa cell toxicity by attenuated Y. pestis at 10 µM; for inhibition at 50 µM: read-out: Inhibition of HeLa cell toxicity by attenuated Y. pestis at 50 µM
[6] = tested on: human HeLa cells

Compound	inhibition at 100 µM [1] [%]	Inhibition of YopE secretion (in words) [1]	Effectiveness in the cell infection model (in words) [2]	cytotoxicity at 100 µM [3] [%]	Inhibition of YopE secretion at 50 µM or lower concentration [1]	inhibition at 10 µM [1] [%]	Effect on growth rate of Y. pestis in bacterial medium (in words) [4]	inhibition at 10 µM [5] [%]	inhibition at 50 µM [5] [%]	Cytotoxicity against HeLa cells, inhibition at 100 µM [6] [%]
CNC(=O)C1CN(C(=O)COC(=O)c2cc(-c3cccs3)nc3ccccc23)c2ccccc2O1 (stereo not shown) [Compound 9652]	30									
CC(=O)Nc1ccc(-c2csc(NC(=O)c3sc4nc(C)cc(C)c4c3C)n2)c(F)c1 [Compound 7146]		poor inhibitors of the YopE secretion								
O=C(Cc1csc(NC(=O)c2ccccc2)n1)Nn1cnc2scc(-c3ccco3)c2c1=O [Compound 7086]	≥ 80		only moderately effective	26 ± 11	at least 50%	≥ 95	small bacteriostatic effect; also recorded: some bacteriostatic effect; also recorded: slight inhibition of bacterial growth	0	20	
O=C(CNC(=O)c1sc2ccccc2c1Cl)Nc1ccc(-n2cnc3ccccc32)cc1 [Compound 7832]	≥ 80		only moderately effective	0	at least 50%	≥ 95	none of them had a significant effect on the growth rate; also recorded: minimal bacterial growth inhibition	0	30	
Cc1ccc(S(=O)(=O)N2CCCN(c3ccc([N+](=O)[O-])c4nonc34)CC2)cc1 [Compound 1504]		poor inhibitors of the YopE secretion								
Methanol [reference compound]										100±1
CC(=O)Nc1ccc(N2C(=O)c3ccc(C(=O)OC(C)C(=O)c4c[nH]c5ccccc45)cc3C2=O)cc1 (stereo not shown) [Compound 7812]	≥ 80		only moderately effective	0	at least 50%	≥ 95	none of them had a significant effect on the growth rate; also recorded: minimal bacterial growth inhibition	0	0	
